The source of these data is US20200172491A1, “SUBSTITUTED 5-(HET-)ARYLPYRAZOLAMIDES AND SALTS THEREOF AND THEIR USE AS HERBICIDAL ACTIVE SUBSTANCES” (Bayer CropScience Aktiengesellschaft, priority 2017, published 2020).

Holding throughout (type): in vivo
Test [1] deals with Amaranthus retroflexus. The test is described as follows: Post-emergence herbicidal action. Conditions: 320 g/ha, rated after about 3 weeks, 100% = plants have died, 0% = like control plants. As for the experimental part:
(§1) Seeds of monocotyledonous and dicotyledonous weeds and crop plants were placed in sandy loam in plastic or wood-fiber pots, covered with soil and cultivated in a greenhouse under controlled growth conditions. 2 to 3 weeks after sowing, the test plants were treated at the one-leaf stage. The compounds of the invention, formulated in the form of wettable powders (WP) or as emulsion concentrates (EC), were then sprayed onto the green parts of the plants as aqueous suspension or emulsion with addition of 0.5% additive at a water application rate of 600 l/ha (converted). After the test plants had been kept in the greenhouse under optimum growth conditions for about 3 weeks, the activity of the preparations was rated visually in comparison to untreated controls. For example, 100% activity=the plants have died, 0% activity=like control plants. Tables B1 to B6 below show the effects of selected compounds of the general formula (I) according to Table A1 at an application rate of 320 g/ha on various harmful plants, which were obtained by the aforementioned experimental procedure.

The subject of test [2] is Stellaria media. The test is described as follows: Post-emergence herbicidal action. Conditions: 320 g/ha, rated after about 3 weeks, 100% = plants have died, 0% = like control plants. How it is done: as §1
Test [3] concerns Viola tricolor. The test is described as follows: Post-emergence herbicidal action. Conditions: 320 g/ha, rated after about 3 weeks, 100% = plants have died, 0% = like control plants. As for the experimental part: as §1
The test system of test [4] is Amaranthus retroflexus. Briefly: Pre-emergence herbicidal action. Conditions: 320 g/ha, scored after about 3 weeks, 100% = plants have died, 0% = like control plants. The source says: (§2) Seeds of monocotyledonous and dicotyledonous weed plants and crop plants were placed in plastic or wood-fiber pots and covered with soil. The compounds of the invention, formulated in the form of wettable powders (WP) or as emulsion concentrates (EC), were then applied to the surface of the covering soil as aqueous suspension or emulsion with addition of 0.5% additive at a water application rate equivalent to 600 l/ha. After the treatment, the pots were placed in a greenhouse and kept under good growth conditions for the test plants. After about 3 weeks, the effect of the preparations is scored visually in comparison with untreated controls as percentages. For example, 100% activity=the plants have died, 0% activity=like control plants. Tables B7 to B11 below show the effects of selected compounds of the general formula (I) according to Table A1 at an application rate of 320 g/ha on various harmful plants, which were obtained by the aforementioned experimental procedure.

The test system of test [5] is Stellaria media. Briefly: Pre-emergence herbicidal action. Conditions: 320 g/ha, scored after about 3 weeks, 100% = plants have died, 0% = like control plants.
Description: as §2

For test [6], the system named is Matricaria inodora. Briefly: Pre-emergence herbicidal action. Conditions: 320 g/ha, scored after about 3 weeks, 100% = plants have died, 0% = like control plants.
Description: as §2

On to `Cc1nn(C)c(-c2ccc(F)cc2Cl)c1C(=O)Nc1ccc(Cl)cc1` [I-024], for which the “herbicidal activity on Amaranthus retroflexus (visual rating vs untreated controls)” value in test [1] is 100%. In addition, the “herbicidal activity on Stellaria media (visual rating vs untreated controls)” value in test [2] turned out to be 100%. In addition, the “herbicidal activity on Viola tricolor (visual rating vs untreated controls)” value in test [3] turned out to be 100%.

On to `Cc1nn(C)c(-c2ccc(F)cc2Cl)c1C(=O)Nc1ccc(F)cc1` [I-007], for which the results for the “herbicidal activity on Amaranthus retroflexus (visual rating vs untreated controls)” value in test [1] and in test [4] were 100% and 90%, respectively. The “herbicidal activity on Stellaria media (visual rating vs untreated controls)” value in test [2] worked out at 80%; in test [5], 100%.

On to `CCn1nc(C)c(C(=O)Nc2c(Cl)cccc2Cl)c1-c1ccc(F)cc1Cl` [I-026], for which the “herbicidal activity on Amaranthus retroflexus (visual rating vs untreated controls)” value in test [1] was 90%. Moreover, in test [3], the “herbicidal activity on Viola tricolor (visual rating vs untreated controls)” value was 80%.

As to `Cc1nn(C)c(-c2ccc(F)cc2)c1C(=O)Nc1c(Cl)cccc1Cl` [I-033], the “herbicidal activity on Amaranthus retroflexus (visual rating vs untreated controls)” value in test [1] was determined as 80%. Moreover, the “herbicidal activity on Viola tricolor (visual rating vs untreated controls)” value in test [3] turned out to be 80%.

In the case of `Cc1nn(C)c(-c2ccc(F)cc2Cl)c1C(=O)Nc1ccc(F)nc1` [I-023], the “herbicidal activity on Amaranthus retroflexus (visual rating vs untreated controls)” value in test [1] is on record as 90%. Moreover, the “herbicidal activity on Stellaria media (visual rating vs untreated controls)” value in test [2] and in test [5] was 100% in each case. In addition, the “herbicidal activity on Matricaria inodora (visual rating vs untreated controls)” value in test [6] amounted to 90%.

In the case of `Cc1nn(C)c(-c2ccc(F)cc2Cl)c1C(=O)Nc1ncccc1F` [I-011], the “herbicidal activity on Amaranthus retroflexus (visual rating vs untreated controls)” value in test [1] worked out at 90%; in test [4], 80%. In addition, the “herbicidal activity on Stellaria media (visual rating vs untreated controls)” value in test [2] and in test [5] was 80% throughout.

`Cc1nn(C)c(-c2ccc(F)cc2Cl)c1C(=O)NC1CCCC1` [I-003]: the “herbicidal activity on Amaranthus retroflexus (visual rating vs untreated controls)” value in test [1] is given as 100%. Also, the “herbicidal activity on Matricaria inodora (visual rating vs untreated controls)” value in test [6] is reported as 90%. In addition, the “herbicidal activity on Stellaria media (visual rating vs untreated controls)” value in test [5] was 80%.

`Cc1nn(C)c(-c2ccc(F)cc2Cl)c1C(=O)NC1CCCCC1` [I-018]: in test [1], the “herbicidal activity on Amaranthus retroflexus (visual rating vs untreated controls)” value is 80%.

As to `Cc1nn(C)c(-c2cc(F)ccc2Cl)c1C(=O)Nc1c(Cl)cccc1Cl` [I-014], in test [1], the “herbicidal activity on Amaranthus retroflexus (visual rating vs untreated controls)” value is on record as 80%. The “herbicidal activity on Stellaria media (visual rating vs untreated controls)” value in test [2] worked out at 90%. Moreover, the “herbicidal activity on Viola tricolor (visual rating vs untreated controls)” value in test [3] worked out at 100%.

Turning to `Cc1nn(C)c(-c2ccc(F)cc2Cl)c1C(=O)Nc1cc(Cl)ccc1Cl` [I-017], the “herbicidal activity on Amaranthus retroflexus (visual rating vs untreated controls)” value in test [1] and in test [4] was 100% each time. Further, in test [2], the “herbicidal activity on Stellaria media (visual rating vs untreated controls)” value was found to be 100%. In test [3], the “herbicidal activity on Viola tricolor (visual rating vs untreated controls)” value was found to be 90%. Also, the “herbicidal activity on Matricaria inodora (visual rating vs untreated controls)” value in test [6] is given as 80%.

Regarding `Cc1cccnc1NC(=O)c1c(C)nn(C)c1-c1ccc(F)cc1Cl` [I-010], the “herbicidal activity on Amaranthus retroflexus (visual rating vs untreated controls)” value in test [1] and in test [4] was 100% throughout. Besides, in test [2], the “herbicidal activity on Stellaria media (visual rating vs untreated controls)” value was 100%. The “herbicidal activity on Viola tricolor (visual rating vs untreated controls)” value in test [3] was 100%. Also, the “herbicidal activity on Matricaria inodora (visual rating vs untreated controls)” value in test [6] was 100%.
